Source: paper PMC8150775, “Repositioning Azelnidipine as a Dual Inhibitor Targeting CD47/SIRPα and TIGIT/PVR Pathways for Cancer Immuno-Therapy” (Biomolecules, 2021)

Legend:
CD47/SIRPα interaction = target: T1, CD47/SIRPα interaction (Homo sapiens, UniProt P78324); experiment: Blocking assay by flow cytometry, preliminary screening at a single concentration, CD47/SIRPα; type: binding; conditions: preliminary test, single concentration of 100 μM
T1 construct: purchased ACRO Biosystem SIA-H5251; host or cells: CHOK1-CD47 cells (lenti-viral transfection)
T1 sequence (P78324 31-370 limits assumed): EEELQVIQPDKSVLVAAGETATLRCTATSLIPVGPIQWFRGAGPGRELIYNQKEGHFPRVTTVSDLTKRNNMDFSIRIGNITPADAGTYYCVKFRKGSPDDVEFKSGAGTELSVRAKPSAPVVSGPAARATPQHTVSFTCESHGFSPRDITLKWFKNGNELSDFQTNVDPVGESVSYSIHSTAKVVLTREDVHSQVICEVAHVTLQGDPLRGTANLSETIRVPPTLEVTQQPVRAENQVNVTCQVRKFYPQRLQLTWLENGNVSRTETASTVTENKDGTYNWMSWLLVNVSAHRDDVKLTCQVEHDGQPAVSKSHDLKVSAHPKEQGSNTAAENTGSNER
Method: (§1) The abilities of small molecule inhibitors (SMIs) (purchased from TargetMol, Shanghai, China) to block the binding of SIRPα protein to CHOK1-CD47 cells or PVR protein to CHOK1-TIGIT cells were determined by flow cytometry, as previously reported. The SMIs at indicated concentrations were incubated with Fc-tagged SIRPα or PVR protein for 30 min at 4°C, followed by incubating with the indicated cells for another 30 min. Human SIRPα protein (SIA-H5251, ACRO Biosystem, Beijing, China), mouse SIRPα protein (SIA-M5258, ACRO Biosystem, Beijing, China), human PVR protein (CD5-H82F6, ACRO Biosystem, Beijing, China), and mouse PVR protein (50259-M03H, Sino Biological, Beijing, China) were used. PE-conjugated anti-human IgG antibody was used to detect the Fc protein bind to cells. Cells incubated with the Fc proteins and anti-human IgG antibody without the SMIs serve as the positive control. The mean fluorescent intensity (MFI) of each sample was detected and recorded by a flow cytometry. The blocking efficacy of the SMIs was calculated as the equation: (MFI of the positive control-MFI of the SMI)/MFI of the positive control × 100%.
(§2) The small molecule inhibitor could not only bind to the target; most importantly, it should interfere with the receptor–ligand interactions. Subsequently, the candidate inhibitors were screened by the blocking assays with the established CD47 and TIGIT over-expressing cell lines. The test was initialed with a preliminary screening of the candidates with a single concentration (Figure 2D). Generally, the SMI blocking efficacy to the CD47/SIRPα interaction was much higher than that of the TIGIT/PVR. […] Therefore, the SMI-F11 and SMI-F17 may exert dual blocking effects in the CD47/SIRPα and TIGIT/PVR pathways. Blocking assays with a concentration gradient of the SMI were further performed to validate the preliminary screening. […] The similar blocking assays with the mouse CD47 and TIGIT over-expressing cells were also performed. […] Considering that most pairs of the immune checkpoints interact with the corresponding ligand in parallel forms, the blocking assays with the PD-1/PD-L1 interaction system was also conducted to test the specificity.

TIGIT/PVR interaction = target: T2, TIGIT/PVR interaction (Homo sapiens, UniProt P15151); experiment: Blocking assay by flow cytometry, preliminary screening at a single concentration, TIGIT/PVR; type: binding; conditions: preliminary test, single concentration of 100 μM
T2 construct: purchased ACRO Biosystem CD5-H82F6; host or cells: CHOK1-TIGIT cells (lenti-viral transfection)
T2 sequence (P15151 21-343 limits assumed): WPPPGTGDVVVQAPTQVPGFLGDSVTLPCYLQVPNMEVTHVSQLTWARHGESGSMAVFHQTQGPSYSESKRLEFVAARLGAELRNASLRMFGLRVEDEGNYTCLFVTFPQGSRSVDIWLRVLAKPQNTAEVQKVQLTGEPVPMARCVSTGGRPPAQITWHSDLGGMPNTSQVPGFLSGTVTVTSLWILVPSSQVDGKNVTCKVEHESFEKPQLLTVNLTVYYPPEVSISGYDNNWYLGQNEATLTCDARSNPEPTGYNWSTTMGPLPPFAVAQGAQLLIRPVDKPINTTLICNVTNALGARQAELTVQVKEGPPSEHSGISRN
Method: as §1, §2

human CD47/SIRPα = target: T3, human CD47/SIRPα (Homo sapiens, UniProt P78324); experiment: Blocking assay, human SIRPα protein binding to CHOK1-hCD47 cells; conditions: concentration gradient
T3 construct: purchased ACRO Biosystem SIA-H5251; host or cells: soluble protein purchased; CD47 on CHOK1-hCD47 cells (lenti-viral transfection)
T3 sequence (P78324 31-370 limits assumed): as the sequence (P78324 31-370 limits assumed) above
Method: as §1

human TIGIT/PVR = target: T4, human TIGIT/PVR (Homo sapiens, UniProt P15151); experiment: Blocking assay, human PVR protein binding to CHOK1-hTIGIT cells; conditions: concentration gradient
T4 construct: purchased ACRO Biosystem CD5-H82F6; host or cells: soluble protein purchased; TIGIT on CHOK1-hTIGIT cells (lenti-viral transfection)
Method: as §1

Row | Structure (SMILES) | blocking efficacy, CD47/SIRPα interaction (CD47/SIRPα interaction) | activity in interfering with the TIGIT/PVR interaction (TIGIT/PVR interaction) | concentration-dependent blocking effect, CD47/SIRPα (human CD47/SIRPα) | concentration-dependent blocking effect, TIGIT/PVR (human TIGIT/PVR)
1 | Cc1cc(O)c(C(=O)N[C@@H](C(=O)N[C@@H]2C(=O)N3C(C(=O)O)=C(CSc4nnnn4C)CS[C@H]23)c2ccc(O)cc2)cn1 [SMI-F12, Cefpiramide acid] | more than 50% |  |  | 
2 | CCCSc1ccc2nc(NC(=O)OC)[nH]c2c1 [SMI-F16, Albendazole] |  | better activities |  | 
3 | O=C1[C@H](CC[C@H](O)c2ccc(F)cc2)[C@@H](c2ccc(O)cc2)N1c1ccc(F)cc1 [SMI-F17, Ezetimibe] | more than 50% | better activities | could not exert blocking effects in a concentration-dependent manner | could not exert blocking effects in a concentration-dependent manner
4 | Nc1cccc2c1CN(C1CCC(=O)NC1=O)C2=O (centres unmarked) [SMI-F19, Lenalidomide] | more than 50% |  |  | 
5 | COc1cccc(N(C)C(=S)Oc2ccc3c(c2)CCCC3)n1 [SMI-F20, Liranaftate] |  | better activities |  | 
